This note sets out measurements from PMC5218480 (PLoS ONE, 2017).

The subject of the assay is MV-4-11 cells. Briefly: Gene expression microarray analysis (Affymetrix PrimeView) and GSEA. Type of assay: cell-based, human. On the set-up: RFU PODN (11730768_x_at) / Fold change /veh PODN (11730768_x_at) / RFU LINC00158 (11744669_a_at) / Fold change /veh LINC00158 (11744669_a_at) / RFU DUSP10 (11751237_a_at) / Fold change /veh DUSP10 (11751237_a_at) / RFU ID3 (11757404_x_at) / Fold change /veh ID3 (11757404_x_at) / RFU PLEKHG5 (11737974_s_at) / Fold change /veh PLEKHG5 (11737974_s_at) / RFU LRRC4B (11730491_at) / Fold change /veh LRRC4B (11730491_at) / RFU GIMAP4 (11747438_a_at) / Fold change /veh GIMAP4 (11747438_a_at) / RFU KRT8 (11758183_x_at) / Fold change /veh KRT8 (11758183_x_at) / RFU CNN1 (11734310_a_at) / Fold change /veh CNN1 (11734310_a_at) / RFU VPS37D (11726825_at) / Fold change /veh VPS37D (11726825_at) / RFU C10orf10 (11716522_x_at) / Fold change /veh C10orf10 (11716522_x_at) / RFU KIR2DL2 /// KIR2DL4 /// KIR2DL5A /// KIR2DL5B /// KIR2DS1 /// KIR2DS2 /// KIR2DS3 /// KIR2DS4 /// KIR3DL3 /// KIR3DL3 /// KIR3DS1 (11738374_at) / Fold change /veh KIR2DL2 /// KIR2DL4 /// KIR2DL5A /// KIR2DL5B /// KIR2DS1 /// KIR2DS2 /// KIR2DS3 /// KIR2DS4 /// KIR3DL3 /// KIR3DL3 /// KIR3DS1 (11738374_at) / RFU C1QL1 (11718748_at) / Fold change /veh C1QL1 (11718748_at) / RFU TMPRSS4 (11747572_a_at) / Fold change /veh TMPRSS4 (11747572_a_at) / RFU HAMP (11756126_x_at) / Fold change /veh HAMP (11756126_x_at) / RFU RNFT2 (11725882_a_at) / Fold change /veh RNFT2 (11725882_a_at) / RFU NR4A2 (11747474_a_at) / Fold change /veh NR4A2 (11747474_a_at) / RFU ABCC12 (11746883_a_at) / Fold change /veh ABCC12 (11746883_a_at) / RFU TMEM136 (11760407_x_at) / Fold change /veh TMEM136 (11760407_x_at) / RFU CLDN22 /// WWC2 (11732394_at) / Fold change /veh CLDN22 /// WWC2 (11732394_at) / RFU HLA-DPB1 (11760878_x_at) / Fold change /veh HLA-DPB1 (11760878_x_at) / RFU SPINT1 (11716480_a_at) / Fold change /veh SPINT1 (11716480_a_at) / RFU GAP43 (11754022_s_at) / Fold change /veh GAP43 (11754022_s_at) / RFU A4GNT (11735810_at) / Fold change /veh A4GNT (11735810_at) / RFU PRB3 (11715151_x_at) / Fold change /veh PRB3 (11715151_x_at) / RFU TUBB4B (11761932_at) / Fold change /veh TUBB4B (11761932_at) / RFU CAPN14 (11732068_a_at) / Fold change /veh CAPN14 (11732068_a_at) / RFU TMCC2 (11721928_a_at) / Fold change /veh TMCC2 (11721928_a_at) / RFU IRGQ (11745062_a_at) / Fold change /veh IRGQ (11745062_a_at) / RFU FAM174B (11720279_a_at) / Fold change /veh FAM174B (11720279_a_at) / RFU TMPRSS4 (11748680_a_at) / Fold change /veh TMPRSS4 (11748680_a_at) / RFU FAM212B (11763350_a_at) / Fold change /veh FAM212B (11763350_a_at) / RFU PLEKHG5 (11743358_a_at) / Fold change /veh PLEKHG5 (11743358_a_at) / RFU ZSCAN30 (11745921_a_at) / Fold change /veh ZSCAN30 (11745921_a_at) / RFU CMKLR1 (11741424_a_at) / Fold change /veh CMKLR1 (11741424_a_at) / RFU LOC101060620 /// MAPK8IP1 (11723275_at) / Fold change /veh LOC101060620 /// MAPK8IP1 (11723275_at) / RFU SPTSSB (11747773_x_at) / Fold change /veh SPTSSB (11747773_x_at) / RFU PRSS12 (11739890_at) / Fold change /veh PRSS12 (11739890_at) / RFU BIN1 (11741810_x_at) / Fold change /veh BIN1 (11741810_x_at) / RFU WNT11 (11732464_a_at) / Fold change /veh WNT11 (11732464_a_at) / RFU C10orf10 (11716521_a_at) / Fold change /veh C10orf10 (11716521_a_at) / RFU C5orf56 (11738089_at) / Fold change /veh C5orf56 (11738089_at) / RFU CYB561 (11721691_x_at) / Fold change /veh CYB561 (11721691_x_at) / RFU ANKRD19P (11752326_a_at) / Fold change /veh ANKRD19P (11752326_a_at) / RFU OR2T12 /// OR2T33 /// OR2T8 (11738714_s_at) / Fold change /veh OR2T12 /// OR2T33 /// OR2T8 (11738714_s_at) / RFU VCAN (11748164_a_at) / Fold change /veh VCAN (11748164_a_at) / RFU JSRP1 (11732532_at) / Fold change /veh JSRP1 (11732532_at) / RFU KRTAP10-11 (11738290_x_at) / Fold change /veh KRTAP10-11 (11738290_x_at) / RFU MYO3A (11730013_a_at) / Fold change /veh MYO3A (11730013_a_at) / RFU EBF3 (11725865_a_at) / Fold change /veh EBF3 (11725865_a_at) / RFU CAMK2N1 (11719241_x_at) / Fold change /veh CAMK2N1 (11719241_x_at) / RFU C5orf56 (11738088_a_at) / Fold change /veh C5orf56 (11738088_a_at) / RFU OLFML3 (11715873_a_at) / Fold change /veh OLFML3 (11715873_a_at) / RFU LOC100653217 /// NTM (11731650_a_at) / Fold change /veh LOC100653217 /// NTM (11731650_a_at) / RFU MAPK11 (11762145_a_at) / Fold change /veh MAPK11 (11762145_a_at) / RFU FIZ1 (11724087_x_at) / Fold change /veh FIZ1 (11724087_x_at) / RFU OASL (11726364_x_at) / Fold change /veh OASL (11726364_x_at) / RFU SOX15 (11748057_x_at) / Fold change /veh SOX15 (11748057_x_at) / RFU CD79A (11719716_a_at) / Fold change /veh CD79A (11719716_a_at) / RFU HIST1H1D (11736915_at) / Fold change /veh HIST1H1D (11736915_at) / RFU CASKIN2 (11723855_a_at) / Fold change /veh CASKIN2 (11723855_a_at) / RFU LOC730098 (11760151_x_at) / Fold change /veh LOC730098 (11760151_x_at) / RFU OR4N2 (11742367_at) / Fold change /veh OR4N2 (11742367_at) / RFU PRRT2 (11749266_a_at) / Fold change /veh PRRT2 (11749266_a_at) / RFU SNX32 (11753110_a_at) / Fold change /veh SNX32 (11753110_a_at) / RFU CDHR5 (11726645_a_at) / Fold change /veh CDHR5 (11726645_a_at) / RFU RCAN1 (11760418_a_at) / Fold change /veh RCAN1 (11760418_a_at) / RFU FAM167A (11723789_a_at) / Fold change /veh FAM167A (11723789_a_at) / RFU FAM26E (11764081_at) / Fold change /veh FAM26E (11764081_at) / RFU ISYNA1 (11749810_s_at) / Fold change /veh ISYNA1 (11749810_s_at) / RFU ACY1 (11761880_at) / Fold change /veh ACY1 (11761880_at) / RFU 11764098_at / Fold change /veh 11764098_at / RFU SAMD14 (11745864_x_at) / Fold change /veh SAMD14 (11745864_x_at) / RFU NPB (11741838_a_at) / Fold change /veh NPB (11741838_a_at) / RFU TMPRSS6 (11731388_a_at) / Fold change /veh TMPRSS6 (11731388_a_at) / RFU KRTAP10-2 (11738614_at) / Fold change /veh KRTAP10-2 (11738614_at) / RFU ARHGAP8 /// PRR5-ARHGAP8 (11727945_x_at) / Fold change /veh ARHGAP8 /// PRR5-ARHGAP8 (11727945_x_at) / RFU KRTAP5-7 /// NADSYN1 (11734609_at) / Fold change /veh KRTAP5-7 /// NADSYN1 (11734609_at) / RFU RASL12 (11751679_a_at) / Fold change /veh RASL12 (11751679_a_at) / RFU CDKN2B (11736163_a_at) / Fold change /veh CDKN2B (11736163_a_at) / RFU PRF1 (11729649_at) / Fold change /veh PRF1 (11729649_at) / RFU, ZNF638 /// ZNF638-IT1 / Fold change vs veh, ZNF638 /// ZNF638-IT1 / RFU, PANK3 / Fold change vs veh, PANK3 / RFU, SH3YL1 / Fold change vs veh, SH3YL1 / RFU, ZEB2 / Fold change vs veh, ZEB2 / RFU, NRIP1 / Fold change vs veh, NRIP1 / RFU, PTTG1IP / Fold change vs veh, PTTG1IP / RFU, CAPN2 / Fold change vs veh, CAPN2 / RFU, MED14 / Fold change vs veh, MED14 / RFU, SNORA58 / Fold change vs veh, SNORA58 / RFU, C1orf63 / Fold change vs veh, C1orf63 / RFU, LRRFIP1 / Fold change vs veh, LRRFIP1 / RFU, NDUFAF7 / Fold change vs veh, NDUFAF7 / RFU, SLC12A2 / Fold change vs veh, SLC12A2 / RFU, IBTK / Fold change vs veh, IBTK / RFU, ESF1 / Fold change vs veh, ESF1 / Fold change vs veh, TMEM50B / RFU, TAOK1 / Fold change vs veh, TAOK1 / RFU, ACBD3 / Fold change vs veh, ACBD3 / RFU, TMA16 / Fold change vs veh, TMA16 / RFU, RWDD3 / Fold change vs veh, RWDD3 / RFU, BCAT1 / Fold change vs veh, BCAT1 / RFU, EDEM3 / Fold change vs veh, EDEM3 / RFU, TMEM33 / Fold change vs veh, TMEM33 / RFU, WDR75 / Fold change vs veh, WDR75 / RFU, AHCTF1 / Fold change vs veh, AHCTF1 / RFU, TFRC / Fold change vs veh, TFRC / RFU, ZDHHC17 / Fold change vs veh, ZDHHC17 / RFU, NOM1 / Fold change vs veh, NOM1 / RFU, ARL8B / Fold change vs veh, ARL8B / RFU, ZBTB11 / Fold change vs veh, ZBTB11 / RFU, TAMM41 / Fold change vs veh, TAMM41 / RFU, KIAA1704 /// LOC100996395 / Fold change vs veh, KIAA1704 /// LOC100996395 / RFU, ING1 / Fold change vs veh, ING1 / RFU, TRMT61B / Fold change vs veh, TRMT61B / RFU, FUBP3 / Fold change vs veh, FUBP3 / RFU, TP53 / Fold change vs veh, TP53 / RFU, TNKS2 / Fold change vs veh, TNKS2 / RFU, ZFP14 / Fold change vs veh, ZFP14 / RFU, ACTR2 / Fold change vs veh, ACTR2 / RFU, PPP3R1 / Fold change vs veh, PPP3R1 / RFU, PIK3R1 / Fold change vs veh, PIK3R1 / RFU, HNRNPA1 / Fold change vs veh, HNRNPA1 / RFU, RNF170 / Fold change vs veh, RNF170 / RFU, ZNF28 / Fold change vs veh, ZNF28 / RFU, RNGTT / Fold change vs veh, RNGTT / RFU, OGT / Fold change vs veh, OGT / RFU, BRD1 / Fold change vs veh, BRD1 / RFU, MARS / Fold change vs veh, MARS / RFU, ZNF655 / Fold change vs veh, ZNF655 / RFU, FAHD1 / Fold change vs veh, FAHD1 / RFU, BDP1 / Fold change vs veh, BDP1 / RFU, LRRCC1 / Fold change vs veh, LRRCC1 / RFU, ARID1A / Fold change vs veh, ARID1A / RFU, ZNF146 / Fold change vs veh, ZNF146 / RFU, ZNF330 / Fold change vs veh, ZNF330 / RFU, GPN3 / Fold change vs veh, GPN3 / RFU, C9orf123 / Fold change vs veh, C9orf123 / RFU, N4BP2L2 / Fold change vs veh, N4BP2L2 / RFU, ARFIP1 / Fold change vs veh, ARFIP1 / RFU, FAM179B / Fold change vs veh, FAM179B / RFU, BCL10 / Fold change vs veh, BCL10 / RFU, UHRF1BP1L / Fold change vs veh, UHRF1BP1L / RFU, BET1 / Fold change vs veh, BET1 / RFU, CNOT2 / Fold change vs veh, CNOT2 / RFU, ZNF268 / Fold change vs veh, ZNF268 / Fold change vs veh, ZNF507 / RFU, DGCR2 / Fold change vs veh, DGCR2 / RFU, WDSUB1 / Fold change vs veh, WDSUB1 / Fold change vs veh, HSP90B1 /// MIR3652 / RFU, ADSS / Fold change vs veh, ADSS / RFU, GK / Fold change vs veh, GK / RFU, ZNF148 / Fold change vs veh, ZNF148 / RFU, TAF9 / Fold change vs veh, TAF9 / RFU, SLC1A5 / Fold change vs veh, SLC1A5 / RFU, SLMO2 / Fold change vs veh, SLMO2 / RFU, ABCC4 / Fold change vs veh, ABCC4 / RFU, LOC101060439 /// RAP1B / Fold change vs veh, LOC101060439 /// RAP1B / RFU, RFX7 / Fold change vs veh, RFX7 / RFU, GTPBP10 / Fold change vs veh, GTPBP10 / RFU, CNEP1R1 / Fold change vs veh, CNEP1R1 / RFU, BIVM-ERCC5 /// ERCC5 / Fold change vs veh, BIVM-ERCC5 /// ERCC5 / RFU, ILF3 / Fold change vs veh, ILF3 / RFU 11762660_at / Fold change /veh 11762660_at / RFU VCAN (11757783_s_at) / Fold change /veh VCAN (11757783_s_at) / RFU DDX43 (11728927_at) / Fold change /veh DDX43 (11728927_at) / RFU KRT8 (11758188_x_at) / Fold change /veh KRT8 (11758188_x_at) / RFU NKD1 (11759106_at) / Fold change /veh NKD1 (11759106_at) / RFU SRD5A1 (11742802_a_at) / Fold change /veh SRD5A1 (11742802_a_at) / RFU TPSAB1 /// TPSB2 (11721975_s_at) / Fold change /veh TPSAB1 /// TPSB2 (11721975_s_at) / RFU GSTM3 (11746129_a_at) / Fold change /veh GSTM3 (11746129_a_at) / RFU IL23R (11737362_x_at) / Fold change /veh IL23R (11737362_x_at) / RFU TMEM51 (11727254_a_at) / Fold change /veh TMEM51 (11727254_a_at) / RFU PIWIL2 (11732686_x_at) / Fold change /veh PIWIL2 (11732686_x_at) / RFU ORM1 (11744905_x_at) / Fold change /veh ORM1 (11744905_x_at) / RFU CCDC152 (11743942_at) / Fold change /veh CCDC152 (11743942_at) / RFU ECM1 (11717891_a_at) / Fold change /veh ECM1 (11717891_a_at) / RFU IL23R (11748794_a_at) / Fold change /veh IL23R (11748794_a_at) / RFU TNFAIP8L3 (11732012_x_at) / Fold change /veh TNFAIP8L3 (11732012_x_at) / RFU MBOAT4 (11741988_at) / Fold change /veh MBOAT4 (11741988_at) / RFU 11764193_at / Fold change /veh 11764193_at / RFU TMEM53 (11763286_at) / Fold change /veh TMEM53 (11763286_at) / RFU MAGEB2 (11727129_at) / Fold change /veh MAGEB2 (11727129_at) / RFU TMEM200A (11744735_a_at) / Fold change /veh TMEM200A (11744735_a_at) / RFU CCDC152 (11751479_a_at) / Fold change /veh CCDC152 (11751479_a_at) / RFU FAM211A (11726209_a_at) / Fold change /veh FAM211A (11726209_a_at) / RFU RGS16 (11746705_a_at) / Fold change /veh RGS16 (11746705_a_at) / RFU VCAN (11755009_s_at) / Fold change /veh VCAN (11755009_s_at) / RFU RHOB (11743442_s_at) / Fold change /veh RHOB (11743442_s_at) / RFU RGS16 (11720943_a_at) / Fold change /veh RGS16 (11720943_a_at) / RFU RGS16 (11720944_at) / Fold change /veh RGS16 (11720944_at) / RFU, VPS4B / Fold change vs veh, VPS4B / RFU, CREB1 / Fold change vs veh, CREB1 / RFU, DNAJC13 / Fold change vs veh, DNAJC13 / RFU, GNAQ / Fold change vs veh, GNAQ / RFU, CDK5R1 / Fold change vs veh, CDK5R1 / RFU, ZRANB3 / Fold change vs veh, ZRANB3 / RFU, CUL4A / Fold change vs veh, CUL4A / RFU, CCNY / Fold change vs veh, CCNY / RFU, UFL1 / Fold change vs veh, UFL1 / RFU, COG3 / Fold change vs veh, COG3 / RFU, DIAPH2 / Fold change vs veh, DIAPH2 / RFU, SKA2 / Fold change vs veh, SKA2 / RFU, AFF3 / Fold change vs veh, AFF3 / RFU, LMF1 / Fold change vs veh, LMF1 / RFU, IPO11 / Fold change vs veh, IPO11 / RFU, DFFB / Fold change vs veh, DFFB / RFU, FOXP1 / Fold change vs veh, FOXP1 / RFU, CARD8 / Fold change vs veh, CARD8 / RFU, STRN3 / Fold change vs veh, STRN3 / RFU, ADK / Fold change vs veh, ADK / RFU, RASSF2 / Fold change vs veh, RASSF2 / RFU, WIPF1 / Fold change vs veh, WIPF1 / RFU, LARP1B / Fold change vs veh, LARP1B / RFU, RASA1 / Fold change vs veh, RASA1 / RFU, RB1 / Fold change vs veh, RB1 / RFU, PPFIA1 / Fold change vs veh, PPFIA1 / RFU, MAT2A / Fold change vs veh, MAT2A / RFU, CCT5 / Fold change vs veh, CCT5 / RFU, WDR92 / Fold change vs veh, WDR92 / RFU, CUX1 / Fold change vs veh, CUX1 / RFU, TTC7A / Fold change vs veh, TTC7A / RFU, TMEM135 / Fold change vs veh, TMEM135 / RFU, DEPTOR / Fold change vs veh, DEPTOR / RFU, CPM / Fold change vs veh, CPM / RFU, DNAJB6 / Fold change vs veh, DNAJB6 / RFU, CACNA2D3 / Fold change vs veh, CACNA2D3 / RFU, DTX4 / Fold change vs veh, DTX4 / RFU, TFCP2 / Fold change vs veh, TFCP2 / RFU, GMCL1 /// GMCL1P1 / Fold change vs veh, GMCL1 /// GMCL1P1 / RFU, AEBP2 / Fold change vs veh, AEBP2 / RFU, SNHG1 /// SNORD22 /// SNORD25 /// SNORD26 /// SNORD27 /// SNORD28 /// SNORD29 /// SNORD31 / Fold change vs veh, SNHG1 /// SNORD22 /// SNORD25 /// SNORD26 /// SNORD27 /// SNORD28 /// SNORD29 /// SNORD31 / Fold change (Aza/veh), C12orf56 (ProbeSet 11735607_a_at) / Fold change (ACY-1035/veh), C12orf56 (ProbeSet 11735607_a_at) / Fold change (Aza/veh), FGFR1OP (ProbeSet 11751329_s_at) / Fold change (ACY-1035/veh), FGFR1OP (ProbeSet 11751329_s_at) / Fold change (Aza/veh), VPS36 (ProbeSet 11739960_a_at) / Fold change (ACY-1035/veh), VPS36 (ProbeSet 11739960_a_at) / RFU SYPL1 (11715823_x_at) / Fold change /veh SYPL1 (11715823_x_at) / RFU IGFBP7 (11715501_s_at) / Fold change /veh IGFBP7 (11715501_s_at) / RFU REEP3 (11722064_at) / Fold change /veh REEP3 (11722064_at) / RFU IGLL1 (11728026_x_at) / Fold change /veh IGLL1 (11728026_x_at): dose or concentration left out as unconfirmed. To be noted: MV-4-11 cells, 48 hours.

With `Nc1ncn([C@@H]2O[C@H](CO)[C@@H](O)[C@H]2O)c(=O)n1` [azacitidine], the “RFU TMPRSS4 (11748680_a_at)” value was determined as 47.70 RFU.
